Data taken from patent US10206388B2, “Formulation component” (SYNGENTA LIMITED, priority 2011, dated 2019).

Tests used:
Type in all cases: in vivo
Tetranychus urticae = test: Two spotted spider mite mortality on French bean, abamectin with aromatic ester adjuvants; settings: for % mortality of Tetranychus urticae: adjuvant 0.1% v/v where present, French bean, 10 days, larva and adults averaged
Procedure: The efficacy of the benzoic acid esters Finsolv® SB (isostearyl benzoate) and Finsolv® TN (C12-C15 alkyl benzoate) and the aromatic ester ethoxylate Dermol®25-3B (C12-C15 alkyl ethoxy (3) benzoate) as adjuvants in compositions containing abamectin was tested and compared to the efficacy of abamectin compositions which lack this type of adjuvant. The adjuvants were present at 0.1% v/v in the abamectin compositions. The surfactants polyoxyethylene sorbitan monooleate and an ethoxylated castor oil were also present in all the abamectin compositions tested.
Two week old French bean (Phaseolus vulgaris) plants were infested with a mixed population of two spotted spider mite Tetranychus urticae. One day after infestation the plants were treated with the test compositions, with a track sprayer from the top with a rate of 200 liters per hectare. Plants were incubated in the greenhouse for 10 days and the evaluation was done on mortality against Larva and Adults, just on the lower side (untreated) of the leaves. Each experiment was replicated twice and the results were averaged. The mortality against Larva and Adults was then averaged.

[1] = system: Digitaria sanguinalis (DIGSA); test: Glasshouse weed test, nicosulfuron with adjuvants; settings: mean over two rates
Procedure: (§1) The aromatic ester Finsolv® TN (C12-C15 alkyl benzoate) was tested in a glasshouse against four weed species using the herbicide nicosulfuron. An agrochemical composition was prepared containing 0.2% v/v of the adjuvant in a track sprayer, and was applied at a volume of 200 liters per hectare. Nicosulfuron was applied at either 30 or 60 grams of pesticide per hectare on each of the weed species. The weed species and their growth stage at spraying were Abutilon theophrasti (ABUTH; growth stage 13), Chenopodium album (CHEAL; growth stage 14), Digitaria sanguinalis (DIGSA; growth stage 13), and Setaria viridis (SETVI; growth stage 13).
(§2) Each spray test replicated three times. The efficacy of the herbicide was assessed visually and expressed as a percentage of the leaf area killed. Samples were assessed at time periods of 7, 14 and 20 days following application. The results shown in Table 6 below are mean averages over the two rates of nicosulfuron, three replicates and the three assessment timings, and are compared to the efficacy of nicosulfuron in the absence of an adjuvant, and nicosulfuron in the presence of the commercially available tank-mix adjuvant, Atplus411F®.
(§3) A second experiment was conducted to assess the efficacy of Finsolv® TN as an adjuvant in compositions of nicosulfuron. This was carried out as outlined above, with the following change: samples were assessed at 14 and 20 days post application.
(§4) The results shown in Table 7 below are mean averages over the two rates of nicosulfuron, three replicates and the two assessment timings, and are compared to the efficacy of nicosulfuron in the absence of an adjuvant, and nicosulfuron in the presence of the commercially available tank-mix adjuvant, Atplus411F®.
(§5) The aromatic esters Benzoate 1 (see Example 9), Benzoflex 354 (2,2,4-trimethyl-1,3-pentanediol dibenzoate) and Finsolv® SB (stearyl benzoate) were tested in a glasshouse against four weed species using the herbicide nicosulfuron. Nicosulfuron was applied at either 30 or 60 grams of pesticide per hectare on each of the weed species. The weed species and their growth stage at spraying were Abutilon theophrasti (ABUTH; growth stage 13), Chenopodium album (CHEAL; growth stage 14), Digitaria sanguinalis (DIGSA; growth stage 13), and Setaria viridis (SETVI; growth stage 13).
(§6) Each spray test replicated three times. The efficacy of the herbicide was assessed visually and expressed as a percentage of the leaf area killed. Samples were assessed at time periods of 14 and 20 days following application. The results shown in Table 14 below are mean averages over the two rates of nicosulfuron, three replicates and the two assessment timings, and are compared to the efficacy of nicosulfuron in the absence of an adjuvant, and nicosulfuron in the presence of the commercially available tank-mix adjuvant, Atplus411F®.

Setaria viridis (SETVI) = test: Glasshouse weed test, nicosulfuron with adjuvants; settings: mean over two rates
Procedure: as §1, §2, §3, §4, §5, §6

[2] = system: Abutilon theophrasti (ABUTH); test: Glasshouse weed test, nicosulfuron with adjuvants; settings: mean over two rates
Procedure: as §1, §2, §3, §4, §5, §6

[3] = system: Chenopodium album (CHEAL); test: Glasshouse weed test, nicosulfuron with adjuvants; settings: mean over two rates
Procedure: as §1, §2, §3, §4, §5, §6

[4] = system: four weed species (ABUTH, CHEAL, DIGSA, SETVI); test: Glasshouse weed test, nicosulfuron with adjuvants, mean across species; settings: mean over two rates
Procedure: as §1, §2, §3, §4, §5, §6
An agrochemical composition was prepared containing 0.2% v/v of the adjuvant in a track sprayer and was applied at a volume of 200 liters per hectare. The adjuvant oils were emulsified using a small amount of the surfactant Pluronic® PE 10500, which was present in the composition at a concentration of 0.02% v/v. Nicosulfuron was applied at either 30 or 60 grams of pesticide per hectare on each of the weed species. The weed species and their growth stage at spraying were Abutilon theophrasti (ABUTH; growth stage 13), Chenopodium album (CHEAL; growth stage 14-15), Digitaria sanguinalis (DIGSA; growth stage 14), and Setaria viridis (SETVI; growth stage 13-14).
Each spray test replicated three times. The efficacy of the herbicide was assessed visually and expressed as a percentage of the leaf area killed. Samples were assessed at time periods of 14 and 21 days following application. […]

[5] = Table 6, Example 5: nicosulfuron 30 or 60 g/ha, adjuvant 0.2% v/v, three replicates, 7, 14 and 20 days
[6] = Table 7, Example 5 second experiment: nicosulfuron 30 or 60 g/ha, adjuvant 0.2% v/v, three replicates, 14 and 20 days
[7] = Table 14, Example 10: nicosulfuron 30 or 60 g/ha, three replicates, 14 and 20 days

abamectin
% mortality of Tetranychus urticae (Tetranychus urticae; abamectin 0.2 ppm): 0% | % mortality of Tetranychus urticae (Tetranychus urticae; abamectin 0.4 ppm): 0% | % mortality of Tetranychus urticae (Tetranychus urticae; abamectin 0.8 ppm): 27% | % mortality of Tetranychus urticae (Tetranychus urticae; abamectin 1.5 ppm): 70% | % mortality of Tetranychus urticae (Tetranychus urticae; abamectin 3 ppm, lower untreated leaf side): 95%

COc1cc(OC)nc(NC(=O)NS(=O)(=O)c2ncccc2C(=O)N(C)C)n1 [Nicosulfuron, nicosulfuron]
Mean percentage kill DIGSA [1, 5]: 1.1 B % | Mean percentage kill DIGSA [1, 6]: 0.0 B % | Mean percentage kill DIGSA [1, 7]: 56.3 B % | Mean percentage kill SETVI (Setaria viridis (SETVI); [5]): 33.3 C % | Mean percentage kill SETVI (Setaria viridis (SETVI); [6]): 61.3 C % | Mean percentage kill SETVI (Setaria viridis (SETVI); [7]): 81.0 B % | Mean percentage kill ABUTH [2, 5]: 19.4 B % | Mean percentage kill ABUTH [2, 6]: 29.2 B % | Mean percentage kill ABUTH [2, 7]: 56.7 C % | Mean percentage kill CHEAL [3, 5]: 26.7 B % | Mean percentage kill CHEAL [3, 6]: 25.8 B % | Mean percentage kill CHEAL [3, 7]: 44.6 B % | Mean percentage kill, Mean across species [4, 5]: 20.1 B % | Mean percentage kill, Mean across species [4, 6]: 29.1 B % | Mean percentage kill, Mean across species [4, 7]: 59.6 B % | Mean percentage kill, Mean across species ([4]; Table 19, Example 15: nicosulfuron 30 or 60 g/ha, adjuvant 0.2% v/v emulsified with Pluronic PE 10500 0.02% v/v, three replicates, 14 and 21 days): 29.8B % | Mean percentage kill, Mean across species ([4]; Table 23, Example 19: absence of an adjuvant, nicosulfuron 30 or 60 g/ha, three replicates, 14 and 21 days): 40.1% | Mean percentage kill, Mean across species ([4]; Table 33, Example 33: nicosulfuron 30 or 60 g/ha, three replicates, 14 and 21 days): 40.1B %

CC(C)CCCCCCCCCCCCCCCOC(=O)c1ccccc1 [Finsolv® SB, Isostearyl benzoate]
Mortality of Tetranychus urticae (Tetranychus urticae; aromatic ester composition 0.1% v/v without abamectin present): no mortality
